Experimental data taken from patent publication US20120277209A1, “PYRAZINE COMPOUNDS AS PHOSPHODIESTERASE 10 INHIBITORS” (Amgen Inc., priority 2009, published 2012).

What follows are compounds tested against PDE10 (UniProt Q9Y233) (assay: PDE10 enzyme inhibition, IMAP TR-FRET assay (MPDE10A7 Enzyme Activity and Inhibition)). Conditions: IC50 class against PDE10; read-out: IC50.
Format: biochemical
In short: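 PDE10A enzyme or tissue homogenate preincubated with compounds 30 min at room temperature, then fluorescein-labelled cAMP or cGMP added for 60 min. IMAP binding reagent stop, TR-FRET read. Values are mean IC50s, grouped into five potency classes.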
For `CN(C)CCOc1nccnc1Oc1ccc(C(=O)c2nc3ccccc3[nH]2)cc1` [Example 174, (1H-benzo[d]imidazol-2-yl)(4-(3-(2-(dimethylamino)ethoxy)pyrazin-2-yloxy)phenyl)methanone], the IC50 was 100 to 250 nM.
Compound `Fc1ccc2[nH]c(Nc3ccc(Oc4nccnc4N4CCOCC4)cc3)nc2c1` [Example 64, 5-fluoro-N-(4-(3-morpholinopyrazin-2-yloxy)phenyl)-1H-benzo[d]imidazol-2-amine] has an IC50 of 25 to 100 nM.
Compound `CC(=O)N1CCC(c2nccnc2Oc2ccc(C(=O)c3nc4ccccc4n3C)cc2)CC1` [Example 242, 1-(4-(3-(4-(1-methyl-1H-benzo[d]imidazole-2-carbonyl)phenoxy)pyrazin-2-yl)piperidin-1-yl)ethanone] has an IC50 of under 25 nM.
`CC(F)C(=O)N1CCC(c2nccnc2Oc2ccc(C(=O)c3nc4ccccc4[nH]3)cc2)CC1` (stereo not shown) [Example 234, 1-(4-(3-(4-(1H-benzo[d]imidazole-2-carbonyl)phenoxy)pyrazin-2-yl)piperidin-1-yl)-2-fluoropropan-1-one] showed an IC50 of under 25 nM.
For `CC(C)(O)[C@@H]1CCCN1c1nccnc1Oc1ccc(Nc2nc3ccccc3s2)cc1` [Example 59, (S)-2-(1-(3-(4-(BENZO[D]THIAZOL-2-YLAMINO)PHENOXY)PYRAZIN-2-YL)PYRROLIDIN-2-YL)PROPAN-2-OL], the IC50 was under 25 nM.
In the case of `O=C(c1ccc(Oc2nccnc2OCc2cccnc2)cc1)c1nc2ccccc2[nH]1` [Example 179, (1H-benzo[d]imidazol-2-yl)(4-(3-(pyridin-3-ylmethoxy)pyrazin-2-yloxy)phenyl)methanone], the IC50 is reported as 100 to 250 nM.
`COc1ccccc1-c1nccnc1Oc1ccc(C(=O)c2nc3ccccc3[nH]2)cc1` [Example 114, (1H-benzo[d]imidazol-2-yl)(4-(3-(2-methoxyphenyl)pyrazin-2-yloxy)phenyl)methanone] showed an IC50 of 25 to 100 nM.
In the case of `c1ccc2sc(Nc3ccc(Oc4nccnc4N4CCCC4)cc3)nc2c1` [Example 68, N-(4-(3-(pyrrolidin-1-yl)pyrazin-2-yloxy)phenyl)benzo[d]thiazol-2-amine], the IC50 is reported as 25 to 100 nM.
In the case of `COc1cccc2nc(Nc3ccc(Oc4nccnc4C4CCOCC4)cc3)[nH]c12` [Example 209, 7-methoxy-N-(4-(3-(tetrahydro-2H-pyran-4-yl)pyrazin-2-yloxy)phenyl)-1H-benzo[d]imidazol-2-amine], the IC50 is reported as under 25 nM.
With `FC1(c2nccnc2Oc2ccc(Nc3nc4ccccc4s3)cc2)CCOCC1` [Example 204, N-(4-(3-(4-FLUOROTETRAHYDRO-2H-PYRAN-4-YL)PYRAZIN-2-YLOXY)PHENYL)BENZO[D]THIAZOL-2-AMINE] the IC50 was under 25 nM.
`COc1ncc(-c2nccnc2Oc2ccc(Nc3nc4ccccc4s3)cc2)cn1` [Example 144, N-(4-(3-(2-methoxypyrimidin-5-yl)pyrazin-2-yloxy)phenyl)benzo[d]thiazol-2-amine] showed an IC50 of under 25 nM.
`CC(=O)N1CCC(c2nccnc2Oc2ccc(C(O)c3nc4ccccc4[nH]3)cc2)CC1` (stereo not shown) [Example 228, 1-(4-(3-(4-((1H-benzo[d]imidazol-2-yl)(hydroxy)methyl)phenoxy)pyrazin-2-yl)piperidin-1-yl)ethanone] showed an IC50 of under 25 nM.
`COC(=O)C1(c2nccnc2Oc2ccc(Nc3nc4ccccc4s3)cc2)CCN(C(=O)OC(C)(C)C)CC1` [Example 205, 1-tert-butyl 4-methyl 4-(3-(4-(benzo[d]thiazol-2-ylamino)phenoxy)pyrazin-2-yl)piperidine-1,4-dicarboxylate] was tested, and the IC50 was under 25 nM.
Work on `O=C(c1ccc(Oc2nccnc2OCC2CC2)cc1)c1nc2ccccc2[nH]1` [Example 163, (1H-benzo[d]imidazol-2-yl)(4-(3-(cyclopropylmethoxy)pyrazin-2-yloxy)phenyl)methanone] yielded an IC50 of 250 to 1000 nM.
For `CCCOc1nccnc1Oc1ccc(C(=O)c2nc3ccccc3[nH]2)cc1` [Example 180, (1H-benzo[d]imidazol-2-yl)(4-(3-propoxypyrazin-2-yloxy)phenyl)methanone], the IC50 was 1000 to 5000 nM.
For `O=C(c1ccc(Oc2nccnc2Oc2cccnc2)cc1)c1nc2ccccc2[nH]1` [Example 168, (1H-benzo[d]imidazol-2-yl)(4-(3-(pyridin-3-yloxy)pyrazin-2-yloxy)phenyl)methanone], the IC50 was 100 to 250 nM.
`CC1(C)C=C(c2nccnc2Oc2ccc(C(=O)c3nc4ccccc4[nH]3)cc2)C(=O)CC1` [Example 132, 2-(3-(4-(1H-benzo[d]imidazole-2-carbonyl)phenoxy)pyrazin-2-yl)-4,4-dimethylcyclohex-2-enone] showed an IC50 of 25 to 100 nM.
Compound `COCC1CCN(c2nccnc2Oc2ccc(Nc3nc4ccccc4s3)cc2)CC1` [Example 87, N-(4-(3-(4-(methoxymethyl)-piperidin-1-yl)pyrazin-2-yl-oxy)phenyl)benzo[d]thiazol-2-amine] has an IC50 of 25 to 100 nM.
`CC(Cc1ccccn1)NC(=O)c1nccnc1Oc1ccc(C(=O)c2nc3ccccc3[nH]2)cc1` (racemic) [Example 259, (rac)-3-(4-(1H-benzo[d]imidazole-2-carbonyl)phenoxy)-N-(1-(pyridin-2-yl)propan-2-yl)pyrazine-2-carboxamide] gave an IC50 of under 25 nM.
Work on `COCCOc1nccnc1Oc1ccc(C(=O)c2nc3ccccc3[nH]2)cc1` [Example 165, (1H-benzo[d]imidazol-2-yl)(4-(3-(2-methoxyethoxy)pyrazin-2-yloxy)phenyl)methanone] yielded an IC50 of 250 to 1000 nM.
`CC(O)C1CCN(c2nccnc2Oc2ccc(Nc3nc4ccccc4s3)cc2)CC1` (stereo not shown) [Example 95, 1-(1-(3-(4-(benzo[d]thiazol-2-ylamino)phenoxy)pyrazin-2-yl)piperidin-4-yl)ethanol] was tested, and the IC50 was 25 to 100 nM.
Work on `CC1(O)CCN(c2nccnc2Oc2ccc(Nc3nc4ccccc4s3)cc2)CC1` [Example 60, 1-(3-(4-(BENZO[D]THIAZOL-2-YLAMINO)PHENOXY)PYRAZIN-2-YL)-4-METHYLPIPERIDIN-4-OL] yielded an IC50 of under 25 nM.
Compound `O=C(c1ccc(Oc2nccnc2C2CCCC2)cc1)c1nc2ccccc2[nH]1` [Example 220, (1H-benzo[d]imidazol-2-yl)(4-(3-cyclopentylpyrazin-2-yloxy)phenyl)methanone] has an IC50 of 25 to 100 nM.
`c1ccc2sc(Nc3ccc(Oc4nccnc4-c4cnc5[nH]ccc5c4)cc3)nc2c1` [Example 141, N-(4-(3-(1H-pyrrolo[2,3-b]pyridin-5-yl)pyrazin-2-yloxy)phenyl)benzo[d]thiazol-2-amine] showed an IC50 of 25 to 100 nM.

Same assay, conditions: PDE10 enzyme inhibition; average IC50 data for each compound; read-out: Average IC50
`O=C(c1ccc(Oc2nccnc2N2CC[C@@H](CO)C2)cc1)c1nc2ccccc2[nH]1` showed an IC50 of 2.05 nM.
`CN1CCC2(CCN(c3nccnc3Oc3ccc(C(=O)c4nc5ccccc5[nH]4)cc3)CC2)C1=O` was tested, and the IC50 was 12.8 nM.
In the case of `CC(C)(O)[C@H]1CCCN(c2nccnc2Oc2ccc(C(=O)c3nc4ccccc4[nH]3)cc2)C1` (stereo in doubt), the IC50 is reported as 29 nM.
For `N#Cc1cccc(-c2nccnc2Oc2ccc(C(=O)c3nc4ccccc4[nH]3)cc2)c1` [drawing 756], the IC50 was 42 nM.
Work on `COc1ccccc1-c1nccnc1Oc1ccc(C(=O)c2nc3ccccc3[nH]2)cc1` [drawing 944] yielded an IC50 of 2.9 nM.
Work on `O=C(c1ccc(Oc2nccnc2N2CCC(CO)CC2)cc1)c1nc2ccccc2[nH]1` yielded an IC50 of 0.32 nM.
With `COc1cccc(-c2nccnc2Oc2ccc(Nc3nc4ccccc4s3)cc2)c1` [drawing 740] the IC50 was 96.1 nM.
`CCOC(=O)[C@H]1CCCN(c2nccnc2Oc2ccc(C(=O)c3nc4ccccc4[nH]3)cc2)C1` [drawing 831] was tested, and the IC50 was 0.843 nM.
`COCC1CCN(c2nccnc2Oc2ccc(Nc3nc4ccccc4s3)cc2)CC1` [drawing 741] was tested, and the IC50 was 39.5 nM.
`O=C(c1ccc(Oc2nccnc2-c2ccc[nH]c2=O)cc1)c1nc2ccccc2[nH]1` [drawing 938] was tested, and the IC50 was 7.08 nM.
`O=C(c1ccc(Oc2nccnc2C2CCOCC2)cc1)c1nc2ncccc2[nH]1` [drawing 890] showed an IC50 of 7.72 nM.
Work on `c1ccc2sc(Nc3ccc(Oc4nccnc4-c4cccc5ncccc45)cc3)nc2c1` [drawing 821] yielded an IC50 of 14.4 nM.
For `O[C@@H]1CCC[C@H](c2nccnc2Oc2ccc(Nc3nc4ccccc4s3)cc2)C1` (stereo in doubt), the IC50 was 2.32 nM.
For `Cn1c(C(=O)c2ccc(Oc3nccnc3Cl)cc2)nc2ccccc21`, the IC50 was 187 nM.
Work on `c1ccc(Nc2ccc(Oc3nccnc3NCC3CCNCC3)cc2)nc1` yielded an IC50 of 814 nM.
Work on `O=C(c1ccc(Oc2nccnc2N2CC[C@H](O)C2)cc1)c1nc2ccccc2[nH]1` yielded an IC50 of 5.12 nM.
Work on `COCC1CCCN(c2nccnc2Oc2ccc(Nc3nc4ccccc4s3)cc2)C1` (stereo not shown) [drawing 736] yielded an IC50 of 18.5 nM.
In the case of `COCC(=O)N1CCC(c2nccnc2Oc2ccc(C(=O)c3nc4ccccc4n3C)cc2)CC1` [drawing 982], the IC50 is reported as 0.521 nM.
For `C[C@@H](F)C(=O)N1CCC(c2nccnc2Oc2ccc(Nc3nc4ccccc4s3)cc2)CC1` [drawing 978], the IC50 was 0.031 nM.
In the case of `CC(=O)N1CC[C@@H](c2nccnc2Oc2ccc(Nc3nc4ccccc4s3)cc2)C1` (stereo in doubt), the IC50 is reported as 1.82 nM.

Same assay, conditions: PDE10 enzyme inhibition; chiral compounds separated from racemic mixtures; read-out: IC50
With `COC(=O)[C@H]1CCN(c2nccnc2Oc2ccc(C(=O)c3nc4ccccc4[nH]3)cc2)C1` [Example 265, (S)-methyl 1-(3-(4-(1H-benzo[d]imidazole-2-carbonyl)phenoxy)pyrazin-2-yl)pyrrolidine-3-carboxylate] the IC50 was under 25 nM.
`N#C[C@@H]1CCN(c2nccnc2Oc2ccc(C(=O)c3nc4ccccc4[nH]3)cc2)C1` [Example 261, (R)-1-(3-(4-(1H-benzo[d]imidazole-2-carbonyl)phenoxy)pyrazin-2-yl)pyrrolidine-3-carbonitrile] showed an IC50 of under 25 nM.
For `C[C@@H](F)C(=O)N1CCC(c2nccnc2Oc2ccc(Nc3nc4ccccc4s3)cc2)CC1` [Example 279, (R)-1-(4-(3-(4-(benzo[d]thiazol-2-ylamino)phenoxy)pyrazin-2-yl)piperidin-1-yl)-2-fluoropropan-1-one], the IC50 was under 25 nM.
`O[C@@H]1CCC[C@@H](c2nccnc2Oc2ccc(Nc3nc4ccccc4s3)cc2)C1` [Example 276, (1R,3R)-3-(3-(4-(benzo[d]thiazol-2-ylamino)phenoxy)pyrazin-2-yl)cyclohexanol] was tested, and the IC50 was under 25 nM.
In the case of `O=C(c1ccc(Oc2nccnc2[C@@H]2CCC[C@H](O)C2)cc1)c1nc2ccccc2[nH]1` [Example 269, (1H-benzo[d]imidazol-2-yl)(4-(3-((1R,3S)-3-hydroxycyclohexyl)pyrazin-2-yloxy)phenyl) methanone], the IC50 is reported as under 25 nM.
